A melting point compilation (Tetko et al.; mined from patent text by program, amines drawn as free bases though some values may be those of a salt)

`Cc1nc(N)c2nc(CO)n(Cc3cc(-c4ccc(F)cc4)no3)c2c1C` showed a melting point of 164 to 165 °C.
`Cc1ccc(S(=O)(=O)Nc2cc3c(c(C(=O)O)c2)NCCC3)cc1` showed a melting point of 251 °C.
`CCN(CC)c1ccc(/C=C/c2cc(/C=C/c3ccc4cc[nH]c4c3)[nH]n2)cc1` showed a melting point of 201 to 204 °C.
Compound `Cc1nc(C(C)O)c[nH]1` (stereo not given) has a melting point of 107 to 111 °C.
With `COC(=O)CCCCCCC(=O)c1ccc(OC)cc1` the melting point was 57 to 58 °C.
For `CCCCCCOC(=O)C(=O)Nc1cc(C#N)cc(NC(=O)C(=O)OCCCCCC)c1Cl`, the melting point was 82 to 84 °C.
For `CNCC1CN(c2c(F)cc3c(=O)c(C(=O)O)cn(-c4ccc(F)cc4F)c3c2F)CCO1` (stereo not given), the melting point was 224 to 227 °C.
`OCCc1nnc(S)s1` gave a melting point of 101 to 103 °C.
`NCCC(=O)N(c1ccccc1)c1ccccc1` gave a melting point of 50 °C.
With `CCOC(=O)Nc1ccc2nc3ccccc3c(-c3cc(C)ccc3C)c2c1` the melting point was 200 to 202 °C.
For `Nc1sc2c(c1C(=O)c1ccc3ccccc3c1)CCN(Cc1ccccc1Cl)C2`, the melting point was 169 to 171 °C.
For `CCN(CC)CCNC(=O)c1cnc2ccc(I)cc2c1Cl`, the melting point was 76 to 78 °C.
For `Cn1cnnc1C(OCCO)(c1ccc(F)cc1)c1cc2c3c(c1)c(-c1cccc(Cl)c1)cc(=O)n3CC2` (stereo not given), the melting point was 138 °C.
`O=C(Nc1ccc(Cl)c(C(F)(F)F)c1)Nc1ccc(Cl)cc1-c1nnn[nH]1` gave a melting point of 245 to 247 °C.
In the case of `N=C(Nc1cc(Cl)cc(NC(=O)/C=C/c2ccccc2Cl)c1)c1ccccc1`, the melting point is reported as 105 to 115 °C.
Work on `CC1CCCC(C)N1Cc1nc(-c2ncn3c2C2CCN2C(=O)c2c(Cl)cccc2-3)no1` (stereo not given) yielded a melting point of 233 to 236 °C.
For `O=C1c2cccc3c(N4CCCC4)c([N+](=O)[O-])cc(c23)C(=O)N1O`, the melting point was 249 to 252 °C.
`CCCOc1ccc(C(=O)O)cc1-c1ccc(C#N)c(=O)[nH]1` showed a melting point of 277 to 279 °C.
In the case of `CC(C(=S)c1ccnc(NC=O)c1)S(C)=O` (stereo not given), the melting point is reported as 123 to 125 °C.
`O=C1c2ccccc2C(=O)N1Cc1ncc(/C=C/C(c2cc(Cl)c(Cl)c(Cl)c2)C(F)(F)F)cc1Cl` (stereo not given) gave a melting point of 79 to 82 °C.
`CNC(=O)c1ccc(C=CC(=O)Nc2cccc(-c3ccc(C)c(CO)c3C)c2)cc1` showed a melting point of 272 to 277 °C.
In the case of `O=C1N(Cc2ccccn2)c2ccccc2C12COc1c(Cl)cc3c(c12)OCCO3` (stereo not given), the melting point is reported as 197 to 199 °C.
Compound `CCOC(=O)c1cc(=O)c2c(ccc3nc(C(=O)OC)cc(O)c32)o1` has a melting point of 247 to 248 °C.
`CN(CC(=O)[C@@H](N)Cc1ccccc1)C(=O)N1CCC[C@H]1C(=O)O` showed a melting point of 174 to 175 °C.
For `Cc1cc(C)cc(N(CCCC(N)=O)Cc2ccc3nc(NCCCN4CCOCC4)n(Cc4cccc5c4ncn5C)c3c2)c1`, the melting point was 206 °C.
In the case of `Cc1cccc(C(=O)C(=O)c2ccccc2)c1C`, the melting point is reported as 61.5 to 62.5 °C.
In the case of `O=C(O)c1ccccc1NCCCN1c2ccccc2CCc2ccc(Cl)cc21`, the melting point is reported as 176 to 178 °C.
In the case of `COc1ccc(/C=C/c2nc3c([nH]2)c(=O)n(C)c(=O)n3C)c(C)c1C`, the melting point is reported as greater than 275 °C.
For `Cc1ncsc1CCSc1ccnc(CSc2nc3ccccc3[nH]2)c1C`, the melting point was 150 to 152 °C.
In the case of `NC(=O)CCCCC1OCC(c2cccc3ccccc23)CO1` (stereo not given), the melting point is reported as 158 to 160 °C.
Work on `CC1=C(C)C(O)N(c2nnc(C(C)(C)C)s2)C1=O` (stereo not given) yielded a melting point of 179 to 182 °C.
`CC(=O)Oc1c(C(C)(C)C)cc(C#N)c(C)c1C(=O)Nc1ccc(C#N)cc1C(F)(F)F` gave a melting point of 171 to 172 °C.
`N#Cc1cc(Sc2ccc3ccccc3c2)ccc1[N+](=O)[O-]` showed a melting point of 139 to 140 °C.
For `Cc1ccc(S(=O)(=O)OCC2CCc3scnc3C2)cc1` (stereo not given), the melting point was 87 to 88 °C.
In the case of `S=C1Nc2ccccc2Sc2nccn21`, the melting point is reported as 156 to 159 °C.
For `COc1ccc2nc(N3CCNCC3)ccc2c1`, the melting point was 95 to 97 °C.
For `Cc1cc2c(o1)c(-c1ccc(COC(=O)CCC(=O)O)o1)nn2Cc1ccccc1`, the melting point was 126 to 129 °C.
`COc1ccc([C@H]2c3[nH]c4ccccc4c3C[C@H]3C(=O)N(CCc4ccccn4)C(=O)N23)cc1` (relative stereo) showed a melting point of 140 to 143 °C.
With `Nc1nc(N)c(-c2ccc(Cl)cc2Cl)c(Cl)n1` the melting point was 219 °C.
Work on `COC(=O)c1cc(NC=O)c2cc(Cc3ccc(F)cc3)cnc2c1O` yielded a melting point of 217 to 219 °C.
With `CCn1c(C)c(C(=O)c2ccc([N+](=O)[O-])cc2C(=O)O)c2ccccc21` the melting point was 203 to 204 °C.
In the case of `COc1ccc(-c2cnn3c(N)c(-c4cccc(Cl)c4)c(C)nc23)cc1OC`, the melting point is reported as 223 to 226 °C.
With `Cc1cc(=O)c(-c2ccccc2)c(-c2ccc(S(N)(=O)=O)cc2)o1` the melting point was 218 °C.
For `CC(C)(C)OC(=O)Cn1c(C(=O)c2ccccc2)ccc1-c1ccccc1`, the melting point was 85 to 87 °C.
Work on `O=C(NCCN1CCOCC1)NCc1ccc2c(c1)Cc1c(-c3ccsc3)n[nH]c1-2` yielded a melting point of 168 to 170 °C.
Compound `COC(=O)CCCCCc1nn(-c2ccc(F)cc2)c2c1CCC2` has a melting point of 39 to 40 °C.
`COc1ccccc1N1CCN(C2CCN(c3noc4ccccc34)CC2)CC1` gave a melting point of 71 to 73 °C.
In the case of `N#Cc1ccccc1Cc1c(-c2ccc(OC(F)F)c(OC3CC3)c2)[nH]c2cn[nH]c(=O)c12`, the melting point is reported as greater than 300 °C.
`Cc1nccn1Cc1ccc(NC(=O)C(F)(F)F)cc1C(F)(F)F` gave a melting point of 229 to 230 °C.
In the case of `CCC(C)c1nn(-c2ccc(C(F)(F)F)cn2)cc1CCCOc1c(C)cccc1CC(=O)O` (stereo not given), the melting point is reported as 134 to 135 °C.
In the case of `O=C(O)c1cccc(C(=O)Nc2ccc(-n3nc(C(F)(F)F)cc3C(F)(F)F)cc2)c1`, the melting point is reported as 244 to 245 °C.
Compound `c1ccc2cc(Cn3c(-c4ccc5c(c4)OCO5)nc4ccccc43)ccc2c1` has a melting point of 180 °C.
`Cn1c(Cl)nc2c3ncc(Cl)cc3ccc21` gave a melting point of 211 to 213 °C.
With `CN(C)Cc1ccc(CSCCNC(=O)NCCCCN(C)CCN(Cc2ccc(F)cc2)c2ccccn2)o1` the melting point was 74 °C.
Work on `N#CC(C#N)=CN(N=C(C#N)C#N)c1ccc(C#N)cc1` yielded a melting point of 231 °C.
Work on `COC(=O)c1nc2n(n1)-c1ccccc1N(c1cccc(C(F)(F)F)c1)C2` yielded a melting point of 204 to 206 °C.
With `CCCn1c(=O)c2[nH]c(/C=C/c3ccc(OC)cc3OC)nc2n(CCC)c1=O` the melting point was 273 to 274 °C.
`Cn1ccnc1Sc1ccc(Nc2c(C#N)cnc3cc(F)ccc23)cc1Cl` gave a melting point of 268 to 272 °C.
Compound `CCOP(=O)(OCC)Oc1cc2c(c3ccccc13)Nc1ccccc1S2` has a melting point of 162 to 163 °C.
Work on `CN1CCC(C2(O)c3sccc3CCn3ccnc32)CC1` (stereo not given) yielded a melting point of 177 °C.
`CCCCOc1ccc(C(C)NC(=O)NO)cc1` (stereo not given) gave a melting point of 125 to 127 °C.
In the case of `COC(=O)[C@H]1Cc2c(sc3ccccc23)[C@@H](c2cccc(O)c2)N1`, the melting point is reported as 283 to 285 °C.
`CCCCCNC(=O)c1cnc2cccc(C)n2c1=O` showed a melting point of 112 to 116 °C.
`COc1ccc(C(=O)c2cc3ccncc3[nH]2)cc1` showed a melting point of 225 to 228 °C.
Compound `CN1C(=O)C(C(=O)Nc2ccc(F)cc2)S(=O)(=O)c2ccc(Cl)cc21` (stereo not given) has a melting point of 234 to 236 °C.
In the case of `Nc1nc2ccccc2c2c1ncn2CCCCNC(=O)c1ccncc1`, the melting point is reported as 213 to 214 °C.
`O=C1CCCCC1c1ccncc1` (stereo not given) showed a melting point of 99 to 101 °C.
With `O=C(NNC(=O)c1occ(-c2ccccc2)c1-c1ccccc1)c1ccc(O)c(C(F)(F)F)c1` the melting point was 142 to 143 °C.
For `CCC(Cc1ccc(C(=O)OC)cc1)NCC(O)c1ccc(O)c(CO)c1` (stereo not given), the melting point was 64 to 67 °C.
`N#Cc1ccc(-c2cccc(OS(N)(=O)=O)c2)cc1Cn1cncn1` gave a melting point of 137 to 138 °C.
